Legend:
Format in all cases: in vivo, Sprague-Dawley rats
[1] = tested on: neuropathic pain (mechanical allodynia) in SCI, LSS and SNI animal models; experiment: Mechanical allodynia (von Frey, 50% threshold) in SCI, LSS and SNI neuropathic pain models
Protocol: To be used as a central nerve injury animal model, a traumatic spinal cord injury (SCI) model was prepared (FIG. 1A). Specifically, 230 to 250 g of male adult Sprague-Dawley rats were anesthetized by intraperitoneal injection of chloral hydrate (500 mg/kg), and then the back and neck regions were shaved, and the spinal cord under the back and neck regions was exposed without damaging the dura mater, and a laminectomy was performed at T9 to T10 levels. To stabilize the spine, the spinous processes of T8 and T11 were fixed, and the spine was damaged by free-falling a 10 g weight from a height of 25 mm using an NYU impactor onto the back surface of the exposed spinal cord and then the rats were left in a temperature and humidity-controlled chamber overnight while covering the muscles and skin. After surgery, the rats were subcutaneously injected with a supplement solution (5 ml, lactated ringer) and injected with antibiotics (gentamicin, 5 mg/kg, intramuscular injection) once daily for 5 days. The body weight, remaining food, and the weight of water were confirmed and recorded for all animals, and the bladder was emptied twice daily by passive bladder massage until reflex micturition was established. At this time, a Sham group was a group that was subjected to only laminectomy without damage.
To be used as a peripheral nerve injury animal model, a lumbar spinal stenosis (LSS) model was prepared (FIG. 1B). Specifically, 260 to 280 g of adult male Sprague-Dawley rats were anesthetized with intraperitoneal injection of chloral hydrate (500 mg/kg), the back region was shaved, and then the spinal plate was exposed at L4 to S2 levels. After removing the ligamentous section between L4 and L5, a trapezoidal silicone block (1.00 mm long×1.3 to 1.2 mm wide×1.0 mm high) was inserted into the epidural space below the L5 and L6 spinal plates without damaging the dural sac. At this time, a Sham group was a group that was subjected to only posterior […] on the animal without inserting a silicone block.
(§1) To be used as a peripheral nerve injury animal model, a sciatic nerve injury (SNI) model was prepared (FIG. 1C). Specifically, 200 to 220 g of male adult Sprague-Dawley rats were anesthetized by intraperitoneal injection of chloral hydrate (500 mg/kg), and then three terminal branches (tibial, common peroneal, and sural nerves) of the right sciatic nerve were approached, and the tibia nerve and the peroneal nerve were tightly ligated with 4-0 silk, and neurectomy was performed at a distal 3 mm position of the ligation site. At this time, a Sham group was a group that exposed only the sciatic nerve without damage.
In order to confirm a neuropathic pain inhibitory effect of YJ102 (Chemical Formula 1), a compound of the present disclosure, in the three nerve injury animal models prepared in Example 1 above, rats having pain on week 3 (SNI model) or week 4 (SCI model and LSS model) after surgery were selected and administered orally (p.o.) at 10 mg/kg or 20 mg/kg of YJ102 dissolved in a solution of DMSO, methyl pyrrolidinone, and water (1:1.5:1), or intraperitoneally injected (i.p. injection) at 1, 2, or 5 mg/kg of YJ102. In a positive control group, gabapentin or pregabalin dissolved in saline was intraperitoneally injected at a concentration of 5 mg/kg, and in a Vehicle group, the same amount of a solution of DMSO, methyl pyrrolidinone, and water was administered. Thereafter, in order to measure mechanical allodynia, the rats were located at the bottom of a transparent plastic box (10 cm×10 cm) on top of a wire mesh (3 mm×3 mm) and subjected to an adaptation period for approximately 20 minutes. Von-Frey filaments were applied to the soles of both paws and used with stiff nylon von-Frey monofilament series ([…], Stoelting, WoodDale, IL, USA; equivalent in grams to 0.4, 0.6, 1.0, 2.0, 4.0, 6.0, 8.0 and 15.0) with logarithmic increases in tactile (mechanical) sensitivity. […]

[2] = tested on: inflammatory factors (IL-6, iNOS, COX-2, IL-1β, TNF-α, MIP-1α, MIP-1β, MIP-2α, Gro-α, and MCP-1); experiment: Inflammatory factor expression in spinal cord of SNI model, RT-PCR and Western blot; conditions: ipsilateral L4-5 spinal cord
Protocol: as §1
It was known that when neuropathic pain occurred, the activation of microglia and astrocytes expressed inflammatory factors including cytokines and chemokines to cause excessive excitation of surrounding neurons. Therefore, in order to confirm changes in inflammatory factor expression by YJ102 administration in the SNI animal model 4 weeks after nerve injury, RNA and protein were extracted from L4-5 spinal cord tissue and RT-PCR and Western blot analysis were performed. Specifically, for RT-PCR analysis, RNA was isolated from spinal cord tissue sections using a TRIZOL Reagent (Invitrogen) according to a manual, and 20 μl of the total mixture was prepared by using 1 μg of total RNA, and cDNA was synthesized using MMLV reverse transcriptase (Invitrogen). […]

[3] = tested on: mTOR pathway; experiment: mTOR pathway in SNI model, Western blot; conditions: 4 weeks after nerve injury
Protocol: FIG. 5B is a diagram showing results of analyzing the expression of factors associated with a mTOR signaling pathway in an inflammation-inhibiting mechanism in an SNI animal model by Western blot.
To determine through which signaling pathway YJ102 inhibited a neuroinflammatory response, there was analyzed increased expression and activation of histone demethylase JMJD3 and expression changes of factors associated with JAK/STAT3 pathway, mTOR pathway, and TRPM7-mediated pathway, which were known as important regulatory mechanisms and epigenetic regulators mediating the neuroinflammatory response, in the tissues of the SNI animal model 4 weeks after nerve injury.

[4] = tested on: bladder wall; experiment: Bladder hypertrophy (bladder wall thickness, H&E) in SCI model; conditions: 5 mg/kg i.p., day 1 after SCI
[5] = tested on: collagen in bladder muscle; experiment: Collagen content in bladder muscle (Masson's trichrome) in SCI model; conditions: 5 mg/kg i.p., day 1 after SCI, vs normal group
[6] = tested on: caspase-3; experiment: Caspase-3 activation (cleaved caspase-3) in urothelium of SCI model, Western blot; conditions: day 3 after SCI
[7] = p.o. 10 mg/kg or 20 mg/kg, all three models (SCI, LSS, SNI)

CCc1ccc(N(C(=O)COC)c2nc3cc(Cl)ccc3o2)cc1 [YJ102]
duration of analgesic effect relative to existing drugs (gabapentin, pregabalin) ([1]; i.p.): more than three times longer
analgesic effect relative to gabapentin or pregabalin ([1]; i.p., at the same concentration as gabapentin or pregabalin): more than twice as high
duration of analgesic effect [1, 7]: ≥ 4 h
mechanical allodynia threshold increased from (time after administration) [1, 7]: 30 min
expression of inflammatory factors ([2]; RT-PCR): significantly reduced
expression of inflammatory factors ([2]; Western blot): significantly reduced
activity of S6 [3]: inhibiting the activity
activity of p70S6kinase [3]: inhibiting the activity
thickness of lamina propria [4]: significantly reduced
thickness of muscle layer [4]: significantly reduced
thickness of urothelium layer [4]: significantly reduced
collagen content in the bladder muscle [5]: maintained at a level almost similar to that of the normal group
caspase-3 activation [6]: inhibited
